Several values for one entry are separate records, joined by “and”; a condition that tells them apart may be missing. Equal values may be shown once. ± gives the uncertainty stated by the source.
COC(C)(C)C
viscosity
Conditions	293.15 K	298.15 K	303.15 K	308.15 K	313.15 K	318.15 K	323.15 K
100 kPa	0.345 ± 0.021 mPa·s	0.32 ± 0.02 mPa·s	0.297 ± 0.021 mPa·s	0.275 ± 0.021 mPa·s	0.252 ± 0.02 mPa·s	0.231 ± 0.02 mPa·s	0.206 ± 0.02 mPa·s
101 kPa	0.387 ± 0.05 mPa·s and 0.371 ± 0.0079 mPa·s	0.374 ± 0.05 mPa·s and 0.3558 ± 0.0075 mPa·s and 0.348 ± 0.005 mPa·s	–	0.341 ± 0.05 mPa·s and 0.3245 ± 0.0069 mPa·s	0.321 ± 0.05 mPa·s	0.297 ± 0.05 mPa·s	0.276 ± 0.05 mPa·s
101.33 kPa	0.3861 ± 0.021 mPa·s and 0.3861 ± 0.039 mPa·s	0.3687 ± 0.02 mPa·s and 0.3687 ± 0.037 mPa·s and 0.3353 ± 0.0037 mPa·s	0.3163 ± 0.02 mPa·s	–	0.2876 ± 0.0093 mPa·s	–	–

CCO
Conditions	viscosity
293.61 K, 100 kPa	1.18 ± 0.06 mPa·s
293.91 K, 100 kPa	1.17 ± 0.06 mPa·s
294.21 K, 100 kPa	1.17 ± 0.06 mPa·s
294.52 K, 100 kPa	1.16 ± 0.06 mPa·s
294.82 K, 100 kPa	1.16 ± 0.06 mPa·s
295.12 K, 100 kPa	1.15 ± 0.06 mPa·s
295.42 K, 100 kPa	1.15 ± 0.06 mPa·s
295.73 K, 100 kPa	1.14 ± 0.06 mPa·s
296.03 K, 100 kPa	1.14 ± 0.06 mPa·s
296.33 K, 100 kPa	1.13 ± 0.06 mPa·s
296.64 K, 100 kPa	1.13 ± 0.06 mPa·s
296.94 K, 100 kPa	1.12 ± 0.06 mPa·s
297.24 K, 100 kPa	1.12 ± 0.06 mPa·s
298.15 K, 101 kPa	1.03 ± 0.03 mPa·s
299.06 K, 100 kPa	1.08 ± 0.06 mPa·s
299.36 K, 100 kPa	1.08 ± 0.06 mPa·s
299.67 K, 100 kPa	1.07 ± 0.05 mPa·s
299.97 K, 100 kPa	1.07 ± 0.05 mPa·s
300.27 K, 100 kPa	1.06 ± 0.05 mPa·s
300.58 K, 100 kPa	1.06 ± 0.05 mPa·s
300.88 K, 100 kPa	1.05 ± 0.05 mPa·s
301.18 K, 100 kPa	1.05 ± 0.05 mPa·s
301.48 K, 100 kPa	1.04 ± 0.05 mPa·s
301.79 K, 100 kPa	1.04 ± 0.05 mPa·s
302.09 K, 100 kPa	1.03 ± 0.05 mPa·s
302.39 K, 100 kPa	1.03 ± 0.05 mPa·s
303.15 K, 100 kPa	0.989 ± 0.012 mPa·s
303.15 K, 101.33 kPa	0.988 ± 0.2 mPa·s
303.61 K, 100 kPa	1.01 ± 0.05 mPa·s
303.91 K, 100 kPa	1 ± 0.05 mPa·s
304.21 K, 100 kPa	1 ± 0.05 mPa·s
304.52 K, 100 kPa	0.99 ± 0.05 mPa·s
304.82 K, 100 kPa	0.99 ± 0.05 mPa·s
305.12 K, 100 kPa	0.98 ± 0.05 mPa·s
305.42 K, 100 kPa	0.98 ± 0.05 mPa·s
305.73 K, 100 kPa	0.97 ± 0.05 mPa·s
306.03 K, 100 kPa	0.97 ± 0.05 mPa·s
306.33 K, 100 kPa	0.96 ± 0.05 mPa·s
306.64 K, 100 kPa	0.96 ± 0.05 mPa·s
306.94 K, 100 kPa	0.95 ± 0.05 mPa·s
307.24 K, 100 kPa	0.95 ± 0.05 mPa·s
307.55 K, 100 kPa	0.94 ± 0.05 mPa·s
307.85 K, 100 kPa	0.94 ± 0.05 mPa·s
308.15 K, 100 kPa	0.93 ± 0.05 mPa·s
308.45 K, 100 kPa	0.93 ± 0.05 mPa·s
308.76 K, 100 kPa	0.92 ± 0.05 mPa·s
309.06 K, 100 kPa	0.92 ± 0.05 mPa·s
309.36 K, 100 kPa	0.91 ± 0.05 mPa·s
309.67 K, 100 kPa	0.91 ± 0.05 mPa·s
309.97 K, 100 kPa	0.9 ± 0.05 mPa·s
310.27 K, 100 kPa	0.9 ± 0.05 mPa·s
310.58 K, 100 kPa	0.89 ± 0.05 mPa·s
310.88 K, 100 kPa	0.89 ± 0.05 mPa·s
311.18 K, 100 kPa	0.88 ± 0.05 mPa·s
311.48 K, 100 kPa	0.88 ± 0.05 mPa·s
313.15 K, 100 kPa	0.8179 ± 0.011 mPa·s and 0.82 ± 0.05 mPa·s
313.15 K, 101.32 kPa	0.835 ± 0.084 mPa·s
318.15 K, 100 kPa	0.75 ± 0.05 mPa·s
323 K, 101.33 kPa	0.673 ± 0.0063 mPa·s and 0.673 ± 0.046 mPa·s
323.15 K, 101.32 kPa	0.702 ± 0.07 mPa·s

Clc1ccccc1
Conditions	viscosity
293.15 K, 101 kPa	0.768 ± 0.008 mPa·s and 0.793 ± 0.014 mPa·s and 0.8062 ± 0.021 mPa·s
293.15 K, 101.33 kPa	0.806 ± 0.011 mPa·s and 0.8522 ± 0.045 mPa·s
293.45 K, 101.33 kPa	0.8265 ± 0.011 mPa·s
298.15 K, 101.3 kPa	0.773 ± 0.011 mPa·s
298.15 K, 101.33 kPa	0.8131 ± 0.043 mPa·s and 0.755 ± 0.008 mPa·s
299 K, 101 kPa	1.182 mPa·s
303.15 K, 101.3 kPa	0.725 ± 0.01 mPa·s
303.55 K, 101.33 kPa	0.743 ± 0.0086 mPa·s
308.15 K, 101.3 kPa	0.666 ± 0.018 mPa·s and 0.683 ± 0.01 mPa·s
312.75 K, 101.33 kPa	0.6695 ± 0.0084 mPa·s
313.15 K, 101.33 kPa	0.6469 ± 0.0064 mPa·s and 0.639 ± 0.005 mPa·s
314.25 K, 101.33 kPa	0.643 ± 0.0081 mPa·s
318.15 K, 101 kPa	0.5629 ± 0.056 mPa·s and 0.5924 ± 0.021 mPa·s and 0.601 ± 0.016 mPa·s
318.15 K, 101.3 kPa	0.615 ± 0.016 mPa·s
318.15 K, 101.33 kPa	0.607 ± 0.006 mPa·s
322.35 K, 101.33 kPa	0.6069 ± 0.007 mPa·s
323.15 K, 101 kPa	0.5724 ± 0.0052 mPa·s and 0.5701 ± 0.023 mPa·s and 0.566 ± 0.015 mPa·s
323.15 K, 101.33 kPa	0.5724 ± 0.0058 mPa·s

CCCCn1cc[n+](C)c1.F[P-](F)(F)(F)(F)F
viscosity
Conditions	293.15 K	293.2 K	298.15 K	303.15 K	308.15 K	308.19 K	313.15 K	318.15 K	323.15 K
100 kPa	336.9 ± 22 mPa·s	342.7 ± 67 mPa·s	256.7 ± 14 mPa·s	197.6 ± 9.3 mPa·s	148.3 ± 5.8 mPa·s	144 ± 15 mPa·s	112 ± 3.6 mPa·s	87.66 ± 2.4 mPa·s	70.97 ± 1.7 mPa·s
101 kPa	378 ± 12 mPa·s and 249.5 ± 100 mPa·s and 265.2 ± 10 mPa·s	–	–	187.6 ± 4.5 mPa·s and 136 ± 54 mPa·s and 165.7 ± 5.5 mPa·s	101.5 ± 41 mPa·s and 133.9 ± 4.2 mPa·s	–	129.7 ± 2.8 mPa·s and 79.01 ± 32 mPa·s and 110.8 ± 3.3 mPa·s	93.5 ± 2 mPa·s and 62.4 ± 25 mPa·s and 95.75 ± 2.8 mPa·s	88.51 ± 1.8 mPa·s and 47.7 ± 19 mPa·s

N#CCCCCC#N
Conditions	viscosity [mPa·s]
303.15 K, 101.33 kPa	4.905 ± 0.027

OC1CCCC1
100 kPa
Conditions	viscosity
293.15 K	12.9 ± 3 mPa·s
298.15 K	10.41 ± 3 mPa·s
303.15 K	8.2 ± 0.17 mPa·s and 8.088 ± 3 mPa·s
308.15 K	6.85 ± 0.17 mPa·s and 6.528 ± 3 mPa·s
318.15 K	4.742 mPa·s
318.16 K	4.87 ± 0.16 mPa·s

C=CC(=O)OCC
viscosity
Conditions	293.15 K	298.15 K	303.15 K	308.15 K	313.15 K	318.15 K
100 kPa	0.5685 ± 0.011 mPa·s	0.533 ± 0.011 mPa·s	0.5 ± 0.011 mPa·s	0.4643 ± 0.01 mPa·s	0.423 ± 0.01 mPa·s	0.3813 ± 0.01 mPa·s
101 kPa	0.5685 ± 0.023 mPa·s and 0.573 ± 0.07 mPa·s	–	0.5 ± 0.02 mPa·s and 0.504 ± 0.07 mPa·s and 0.502 ± 0.008 mPa·s	–	0.423 ± 0.017 mPa·s and 0.443 ± 0.07 mPa·s and 0.42 ± 0.007 mPa·s	0.3813 ± 0.016 mPa·s and 0.421 ± 0.07 mPa·s

OCCCCCO
101 kPa
Conditions	viscosity [mPa·s]
313.15 K	45.63 ± 2.6
318.15 K	36.87 ± 2.1
323.15 K	29.8 ± 1.7

CCCC(C)C
101.33 kPa
Conditions	viscosity [mPa·s]
298 K	0.2753 ± 0.0048
298.15 K	0.2767 ± 0.003

CCOP(=O)(OCC)OCC
Conditions	viscosity [mPa·s]
298.15 K, 101.3 kPa	1.503 ± 0.022

Reference: the CheMixHub viscosity set
